Measured values from patent US20240285634A1, “COMPOUND AND METHOD FOR TREATING CHEMOTHERAPY-ASSOCIATED GASTROINTESTINAL SIDE EFFECTS” (ONQUALITY PHARMACEUTICALS CHINA LTD., priority 2021, published 2024).

Tested on: Chemotherapeutic agent-caused diarrhea models of Balb/c mice
Experiment: Relieving effect on diarrhea caused by a chemotherapeutic agent (Examples 1-201)
Format: in vivo
From the text: Construction of mouse animal models: Chemotherapeutic agent-caused diarrhea models of Balb/c mice were constructed according to the administration mode and frequency of the chemotherapeutic agent as shown in Table 3. After administration for several days, mice developed different extents of diarrhea symptoms (as shown in FIG. 1), which were similar to the conditions in human. Thus, chemotherapeutic agent-caused diarrhea models of mice are very good models to mimic diarrhea in human caused by the chemotherapeutic agent.
Balb/c mice were fed for 1 week, and then divided into groups. The experiment was divided into a control group, a chemotherapeutic agent group, and a group of the compound as shown in Formula I, each of which comprised 10 mice, to perform the administration experiment, for which the administration dosage, mode, time and frequency were shown in Table 3. The control group: being injected or intragastrically administered with the same solvent as that used in the group of the compound as shown in Formula I (the injection mode and time were shown in Table 3), and then being injected or intragastrically administered with the same solvent as that used in the chemotherapeutic agent group (the administration mode was shown in Table 3); the chemotherapeutic agent group: being injected or intragastrically administered with the same solvent as that used in the group of the compound as shown in Formula I (the administration mode and time were shown in Table 3), and then being injected or intragastrically administered with the chemotherapeutic agent (the type, administration mode and dosage were shown in Table 3); the group of the compound as shown in Formula I: being injected or intragastrically administered with the compound as shown in Formula I (the administration mode and time were shown in Table 3), and then being administered with the chemotherapeutic agent (the administration mode and dosage were shown in Table 3).
The scoring of diarrhea can refer to the method of Akinobu Kurita (Cancer Chemother Pharmacol 2000; 46:211-20.), Grade 0: normal feces; Grade 1: mild diarrhea, the stools is slightly wet and soft; Grade 2: moderate diarrhea, loose stools and mild perianal contamination; Grade 3: severe diarrhea, watery stools and accompanied by severe perianal staining (see FIG. 1). It is regarded as effective remission when the diarrhea grading of mice in the group of the compound as shown in Formula I is reduced compared with the average diarrhea grading of mice in the chemotherapeutic agent group.
The diarrhea grading of mice was observed and recorded every day. At the end of the experiment, the number of mice in the group of the compound as shown in Formula I whose diarrhea grading was lower than that of mice in the chemotherapeutic agent group was recorded. Table 3 lists various animal experiment combinations of chemotherapeutic agents and the compound as shown in Formula I, as well as the corresponding experimental results. (Relative remission rate %=the number of mice in the group of the compound as shown in Formula I whose diarrhea has been effectively relieved/the total number of mice in the group of the compound as shown in Formula I*100%. The establishment rate of diarrhea model in the chemotherapeutic agent group was 50%-70%, that is, about 5-7 of 10 mice developed diarrhea during the experiment, and there were cases of individual mice death or not developing diarrhea.)

CN1CCN(c2ccc(Nc3ncc4cc5n(c4n3)C3(CCCCC3)CNC5=O)nc2)CC1 [Compound I, Trilaciclib]
Relative remission rate (Ex 1, 5-Fu 125 mg/kg intraperitoneal single, compound 100 mg/kg intravenous single 0.5 h before, cycle 10 days): 70% | Relative remission rate (Ex 2, 5-Fu 125 mg/kg intraperitoneal single, compound 100 mg/kg intravenous single 1 h before, cycle 10 days): 70% | Relative remission rate (Ex 3, 5-Fu 125 mg/kg intraperitoneal single, compound 100 mg/kg intravenous single 2 h before, cycle 10 days): 60% | Relative remission rate (Ex 4, 5-Fu 125 mg/kg intraperitoneal single, compound 100 mg/kg intravenous single 3 h before, cycle 10 days): 60% | Relative remission rate (Ex 5, 5-Fu 125 mg/kg intraperitoneal single, compound 100 mg/kg intravenous single 4 h before, cycle 10 days): 60% | Relative remission rate (Ex 6, 5-Fu 125 mg/kg intraperitoneal single, compound 100 mg/kg intravenous single 5 h before, cycle 10 days): 40% | Relative remission rate (Ex 7, 5-Fu 125 mg/kg intraperitoneal single, compound 100 mg/kg intravenous single 6 h before, cycle 10 days): 40% | Relative remission rate (Ex 8, 5-Fu 125 mg/kg intraperitoneal single, compound 100 mg/kg intravenous single 7 h before, cycle 10 days): 40% | Relative remission rate (Ex 9, 5-Fu 125 mg/kg intraperitoneal single, compound 100 mg/kg intravenous single 8 h before, cycle 10 days): 50% | Relative remission rate (Ex 10, 5-Fu 125 mg/kg intraperitoneal single, compound 100 mg/kg intravenous single 9 h before, cycle 10 days): 40% | Relative remission rate (Ex 11, 5-Fu 125 mg/kg intraperitoneal single, compound 100 mg/kg intravenous single 10 h before, cycle 10 days): 50% | Relative remission rate (Ex 12, 5-Fu 125 mg/kg intraperitoneal single, compound 100 mg/kg intravenous single 11 h before, cycle 10 days): 40% | Relative remission rate (Ex 13, 5-Fu 125 mg/kg intraperitoneal single, compound 12.5 mg/kg intravenous single 12 h before, cycle 10 days): 30% | Relative remission rate (Ex 14, 5-Fu 125 mg/kg intraperitoneal single, compound 25 mg/kg intravenous single 12 h before, cycle 10 days): 40% | Relative remission rate (Ex 15, 5-Fu 125 mg/kg intraperitoneal single, compound 50 mg/kg intravenous single 12 h before, cycle 10 days): 60% | Relative remission rate (Ex 16, 5-Fu 125 mg/kg intraperitoneal single, compound 100 mg/kg intravenous single 12 h before, cycle 10 days): 70% | Relative remission rate (Ex 17, 5-Fu 125 mg/kg intraperitoneal single, compound 150 mg/kg intravenous single 12 h before, cycle 10 days): 50% | Relative remission rate (Ex 18, 5-Fu 125 mg/kg intraperitoneal single, compound 240 mg/kg intravenous single 12 h before, cycle 10 days): 50% | Relative remission rate (Ex 86, Oxaliplatin 17.5 mg/kg intravenous single, compound 150 mg/kg intravenous single 20 h before, cycle 8 days): 40% | Relative remission rate (Ex 87, Oxaliplatin 17.5 mg/kg intravenous single, compound 150 mg/kg intravenous single 24 h before, cycle 8 days): 50% | Relative remission rate (Ex 88, Oxaliplatin 17.5 mg/kg intravenous single, compound 150 mg/kg intravenous single 48 h before, cycle 8 days): 0% | Relative remission rate (Ex 92, Irinotecan (CPT-11) 240 mg/kg intraperitoneal single, compound 100 mg/kg intravenous single 0.5 h before, cycle 7 days): 50% | Relative remission rate (Ex 93, Irinotecan (CPT-11) 240 mg/kg intraperitoneal single, compound 100 mg/kg intravenous single 1 h before, cycle 7 days): 50% | Relative remission rate (Ex 94, Irinotecan (CPT-11) 240 mg/kg intraperitoneal single, compound 100 mg/kg intravenous single 2 h before, cycle 7 days): 50% | Relative remission rate (Ex 95, Irinotecan (CPT-11) 240 mg/kg intraperitoneal single, compound 100 mg/kg intravenous single 3 h before, cycle 7 days): 40% | Relative remission rate (Ex 96, Irinotecan (CPT-11) 240 mg/kg intraperitoneal single, compound 100 mg/kg intravenous single 4 h before, cycle 7 days): 50% | Relative remission rate (Ex 97, Irinotecan (CPT-11) 240 mg/kg intraperitoneal single, compound 100 mg/kg intravenous single 5 h before, cycle 7 days): 40% | Relative remission rate (Ex 98, Irinotecan (CPT-11) 240 mg/kg intraperitoneal single, compound 100 mg/kg intravenous single 6 h before, cycle 7 days): 40% | Relative remission rate (Ex 99, Irinotecan (CPT-11) 240 mg/kg intraperitoneal single, compound 100 mg/kg intravenous single 7 h before, cycle 7 days): 70% | Relative remission rate (Ex 100, Irinotecan (CPT-11) 240 mg/kg intraperitoneal single, compound 100 mg/kg intravenous single 8 h before, cycle 7 days): 70% | Relative remission rate (Ex 101, Irinotecan (CPT-11) 240 mg/kg intraperitoneal single, compound 100 mg/kg intravenous single 9 h before, cycle 7 days): 60% | Relative remission rate (Ex 102, Irinotecan (CPT-11) 240 mg/kg intraperitoneal single, compound 100 mg/kg intravenous single 10 h before, cycle 7 days): 40% | Relative remission rate (Ex 103, Irinotecan (CPT-11) 240 mg/kg intraperitoneal single, compound 100 mg/kg intravenous single 11 h before, cycle 7 days): 60% | Relative remission rate (Ex 104, Irinotecan (CPT-11) 240 mg/kg intraperitoneal single, compound 100 mg/kg intravenous single 12 h before, cycle 7 days): 60% | Relative remission rate (Ex 105, Irinotecan (CPT-11) 240 mg/kg intraperitoneal single, compound 100 mg/kg intravenous single 14 h before, cycle 7 days): 50% | Relative remission rate (Ex 106, Irinotecan (CPT-11) 240 mg/kg intraperitoneal single, compound 100 mg/kg intravenous single 16 h before, cycle 7 days): 70% | Relative remission rate (Ex 107, Irinotecan (CPT-11) 240 mg/kg intraperitoneal single, compound 100 mg/kg intravenous single 18 h before, cycle 7 days): 70% | Relative remission rate (Ex 108, Irinotecan (CPT-11) 240 mg/kg intraperitoneal single, compound 100 mg/kg intravenous single 20 h before, cycle 7 days): 40% | Relative remission rate (Ex 109, Irinotecan (CPT-11) 240 mg/kg intraperitoneal single, compound 100 mg/kg intravenous single 22 h before, cycle 7 days): 40% | Relative remission rate (Ex 110, Irinotecan (CPT-11) 240 mg/kg intraperitoneal single, compound 100 mg/kg intravenous single 24 h before, cycle 7 days): 30% | Relative remission rate (Ex 111, Irinotecan (CPT-11) 240 mg/kg intraperitoneal single, compound 100 mg/kg intravenous single 48 h before, cycle 7 days): 0% | Relative remission rate (Ex 118, Irinotecan (CPT-11) 300 mg/kg oral single, compound 100 mg/kg intraperitoneal single 12 h before, cycle 11 days): 50% | Relative remission rate (Ex 119, Irinotecan (CPT-11) 250 mg/kg intramuscular single, compound 100 mg/kg intramuscular single 1 h before, cycle 7 days): 70% | Relative remission rate (Ex 120, Irinotecan (CPT-11) 200 mg/kg intravenous single, compound 100 mg/kg intravenous single 0. h before, cycle 7 days): 70% | Relative remission rate (Ex 121, Fluorouracil 100 + irinotecan 200 mg/kg intravenous single, compound 100 mg/kg intravenous single 0.5 h before, cycle 10 days): 70% | Relative remission rate (Ex 122, Fluorouracil 100 + irinotecan 200 mg/kg intravenous single, compound 100 mg/kg intravenous single 4 h before, cycle 10 days): 40% | Relative remission rate (Ex 123, Fluorouracil 100 + irinotecan 200 mg/kg intravenous single, compound 100 mg/kg intravenous single 8 h before, cycle 10 days): 50% | Relative remission rate (Ex 124, Fluorouracil 100 + irinotecan 200 mg/kg intravenous single, compound 100 mg/kg intravenous single 12 h before, cycle 10 days): 50% | Relative remission rate (Ex 125, Fluorouracil 100 + irinotecan 200 mg/kg intravenous single, compound 100 mg/kg intravenous single 24 h before, cycle 10 days): 30% | Relative remission rate (Ex 126, Fluorouracil 100 + irinotecan 200 mg/kg intravenous single, compound 100 mg/kg intravenous single 48 h before, cycle 10 days): 0% | Relative remission rate (Ex 127, Fluorouracil 100 + irinotecan 200 mg/kg intraperitoneal single, compound 100 mg/kg intraperitoneal single 1 h before, cycle 8 days): 40% | Relative remission rate (Ex 128, Fluorouracil 100 + irinotecan 200 mg/kg intraperitoneal single, compound 100 mg/kg intraperitoneal single 12 h before, cycle 8 days): 30% | Relative remission rate (Ex 129, Fluorouracil 100 + irinotecan 200 mg/kg intraperitoneal single, compound 150 mg/kg oral single 0.5 h before, cycle 8 days): 40% | Relative remission rate (Ex 130, Fluorouracil 100 + irinotecan 200 mg/kg intraperitoneal single, compound 150 mg/kg oral single 12 h before, cycle 8 days): 40%
